In US7585521B2, “Controlled release ceramic particles, compositions thereof, processes of preparation and methods of use” (Australian Nuclear Science & Technology Organisation, priority 2000, dated 2009):
Blank lines part the entries; values can stand above or below the compound they belong to.

Assays:
[1] = Release of dye from sol-gel silica gels/microspheres into demineralised water, UV-visible absorbance; assay type: physicochemical
Protocol: The release of the dye molecule from the gels was performed in 3 ml of demineralised water and the evolution of the absorbance with time was monitored at a fixed wavelength λmax=485 nm using a UV-visible spectrophotometer (Lambda 40, Perkin Elmer, USA). The wavelength of 485 nm corresponds to the absorbance maximum of Orange II in the visible spectrum.
The plots of fraction of dye released versus time (FIG. 1) were obtained by dividing the actual quantity of dye released by the total mass of dye encapsulated in the gel. For the dry gel, this quantity is calculated by dividing the total quantity of dye in the gel rod by the mass of the gel and multiplying it by the mass of the gel sample used in the release experiments. For the wet gel, the fraction released was obtained experimentally from the final absorbance.
To study the influence of the temperature on the release rate, a known quantity of gel was immersed in 3 ml of demineralised water and the absorbance was monitored at a fixed wavelength of 485 nm. One sample was kept at ambient temperature (i.e. 22° C.) and two others were maintained at 37° C. and 60° C. in thermostated water baths.
The release rates of the Orange II samples were monitored at a fixed wavelength of 485 nm while the release rates of the methyl-violet samples were monitored at 584 nm (corresponding to the absorption peak of methyl-violet in the visible spectrum).

[2] = spray-dried particles produced from bohemite sols; cited from earlier work
[3] = Release of cycloheximide and cis-platin from gels, UV absorbance; assay type: physicochemical; details: release from gels in 3 ml of 0.9% NaCl, 300 nm
Protocol: The first series of samples was prepared by mixing 5.51 ml of TMOS (37 mmol), 2.67 ml of either drug solutions (148 mmol of H2O) and 6 ml of methanol (148 mmol). 4 ml aliquots of the solutions were transferred to 5 ml screw capped poly-propylene vials and placed in an oven at 60° C. to gel. Once gelation occurred the samples were aged at 60° C. for 7 days. The cap was then removed and the samples were allowed to dry for 3 days at 60° C.
A second series of samples was prepared by combining 3 ml of TMOS (20 mmol), 2.88 ml of MTMS (20 mmol) and 2.91 ml of the respective drug solution (161 mmol of H2O). These samples were processed as described above.
The release of cycloheximide from a known quantity of gel was investigated in 3 ml of demineralised water and the absorbance was monitored at a fixed wavelength, .λmax=201 nm. The release of cis-platin from a known quantity of gel was investigated in 3 ml of 0.9% NaCl and the absorbance was monitored at a fixed wavelength, λmax=300 nm.

[4] = Degradation of cis-platin in silica gels on aging at 60° C., examined by transmission electron microscopy; assay type: physicochemical
Protocol: The substitution of metal alkoxides by organically modified silicon alkoxides leads to the replacement of the hydroxyl groups at the surface of the pores by organic moieties (e.g. methyl vinyl, glycidyloxypropyl groups). This prevents interaction between the entrapped bio-molecules and the surface, and potential degradation of the active ingredient. This is illustrated by the encapsulation of cis-platin in silica gels.
A solution containing 20 ml of TMOS (134 mmol), 9.69 ml of cis-platin solution (538 mmol of water) and 21.8 ml of methanol (538 mmol) was stirred for 30 minutes. 4 ml aliquots of the solution were transferred to 5 ml screw capped poly-propylene vials and placed in an oven at 60° C. to gel. Once gelation occurred the samples were aged at 60° C. for 15 days. The cap was then removed and the samples were allowed to dry for 3 days at 60° C.
An identical procedure was used to prepare gels from a solution containing 3 ml of TMOS, 2.88 ml of MTMS and 2.91 ml of cis-platin solution.
After 3 days of aging at 60° C. the gels prepared from TMOS started to darken, ultimately yielding a black gel after 15 days aging. […] The two dry gels were subsequently examined by transmission electron microscopy using a JEOL 201 OF field emission gun microscope.

Compound: O=S(=O)([O-])c1ccc(N=Nc2c(O)ccc3ccccc23)cc1.[Na+] [Orange II, 4-(2-hydroxy-1-napthylazo) benzene sulfonic acid, sodium salt]
release rate versus MTMS content ([1]; 0-50% of TMOS substituted with MTMS, W=4, D=4): decrease with increasing MTMS content
release rate versus drying time and temperature ([1]; gels W=4, D=0, dried 1, 3 or 7 days at ambient, 60° or 104° C.): decrease with increasing time and temperature
pH of maximum release rate ([1]; gels W=4, D=4, dye solution pH 1-11): 7
release rate versus pH, acid catalyst ([1]; gels W=4, D=4, synthesised using acid as a catalyst): increase with increasing pH
release rate versus pH, base catalyst ([1]; gels W=4, D=4, synthesised using base as a catalyst): decrease with increasing pH
release rate versus syneresis time ([1]; gels aged at 60° C. for 0-30 days): increase with syneresis time
release rate of the dye versus W and D ([1]; gels with W = 2-8, D = 0-8, release in demineralised water, 485 nm): increase with increasing W and decreasing D
release rate of microspheres versus drying temperature ([1]; microspheres dried from ambient to 100° C. for 2 days): decreases with increasing drying temperature
release rate versus temperature of the release media ([1]; release at 22° C., 37° C. and 60° C. in demineralised water): increase with increasing temperature

release rate compared with Orange II ([1]; gels W=4, D=4, aged 15 or 30 days at 60° C., monitored at 584 nm): significantly smaller
Compound: methyl violet

Compound: CN(C)CCCN1c2ccccc2CCc2ccccc21 [imipramine]
release of encapsulated imipramine [2]: released within five minutes

release rate compared with cycloheximide [3]: greater
reaction of cis-platin with the matrix, MTMS substituted gels ([4]; 50% of TMOS substituted by MTMS): prevents any such precipitation
Compound: Cis Pt(NH3)2Cl2 [cis-platin]
reaction of cis-platin with the matrix, silica gels ([4]; encapsulated in silica gels (TMOS)): precipitation of metallic platinum nanoparticles
